SMILES strings stand for the structures. Converted amounts (≈) assume the structure as drawn.

The conditions of this series: buffer; pH 7.4; 200.0 µM.
As usually defined, the kinetic solubility is solubility judged after dilution from a stock solution rather than from solid. Molecule `CN(C)[C@@H]1C(=O)C(C(N)=O)=C(O)[C@@]2(O)C(=O)C3=C(O)c4c(O)cccc4[C@@](C)(O)C3[C@H](O)C12.Cl` (some centres undefined) returned a solubility (kinetic) of 70.2 µg/mL.

Regarding `Cc1cc(C(=O)COC(=O)c2cccnc2Cl)c(C)n1C`, the solubility (kinetic) worked out at 13 µg/mL (≈ 42.4 µM).

With `CN(C)C(CNC(=O)c1ccc([N+](=O)[O-])cc1Cl)c1ccco1` (centres undefined), the kinetic solubility was above 50.7 µg/mL.

`CC(C)(C)C(=O)/C=C1\SCC(=O)N1CC(=O)N1CCN(c2ccccc2)CC1` gave a solubility (kinetic) of 33.7 µg/mL (≈ 83.9 µM).

As to `COc1ccc(CC(=O)N(Cc2ccccc2)C(C)C)cc1`, the solubility (kinetic) worked out at 40.7 µg/mL (≈ 137 µM).

The molecule `CCc1ccc2[nH]c(C(=O)N(C)c3ccc(F)cc3F)cc2c1` returned a solubility (kinetic) of 1.7 µg/mL (≈ 5.41 µM).

Take `O=C(NC1=NCCS1)c1cc(Cl)ccc1Cl`: the solubility (kinetic) turned out to be 37.1 µg/mL (≈ 135 µM).

As to `Cn1c(=O)c2cc3ccc(Cl)cc3nc2n(C)c1=O`, the kinetic solubility came to 0.4 µg/mL (≈ 1.45 µM).

With `CCC(C)c1ccc(NC(=O)Nc2cccnc2)cc1` (centres undefined), the solubility (kinetic) came out at 33.2 µg/mL (≈ 123 µM).

`CC1CCCC(NC(=O)CCC(=O)NCc2ccccc2)C1C` (centres undefined) displayed a solubility (kinetic) of 44.7 µg/mL (≈ 141 µM).

Consider `CCCCC(CC)C(=O)Nc1ncc([N+](=O)[O-])s1` (centres undefined), for which the solubility (kinetic) is above 40.7 µg/mL.

For the molecule `Cc1ccc(Nc2nnc(C)c3ccccc23)c(C)c1`, the kinetic solubility is above 39.5 µg/mL.

As for `O=C(Nc1ccon1)c1sc2cc(Cl)ccc2c1Cl`, the solubility (kinetic) was below 0.3 µg/mL.

`COC(=O)c1c(S(=O)(=O)N2CCOCC2)c(C)n(C)c1C` gave a kinetic solubility above 47.5 µg/mL.

Molecule `Cc1cc(=O)[nH]c(N2CCCNCC2)n1` had a solubility (kinetic) above 31.2 µg/mL.

Turning to `COc1ccc(NC(=O)CN2CCc3ccccc3C2)c([N+](=O)[O-])c1`, the solubility (kinetic) turned out to be 1.8 µg/mL (≈ 5.27 µM).

`C=CCn1c(N)cc(=O)nc1SCC(=O)Nc1ccccc1C(N)=O`: the solubility (kinetic) came to 49.9 µg/mL (≈ 139 µM).

For `O=c1ccc(-c2nc3ccccc3n2Cc2ccc(Cl)cc2)c[nH]1`, the solubility (kinetic) worked out at 38.7 µg/mL (≈ 115 µM).

Molecule `COc1ccc2c(CC(=O)OCc3nc4ccsc4c(=O)[nH]3)coc2c1` had a solubility (kinetic) of 32.2 µg/mL (≈ 86.9 µM).

Regarding `O=Cc1ccc(Oc2nc(Cl)ncc2F)cc1`, the kinetic solubility was 36.8 µg/mL (≈ 146 µM). This solubility kinetic and that of the molecule before are within 1.5-fold of each other.

`CC1(C)Nc2ccccc2C(=O)N1c1ccc(Br)cc1`: the solubility (kinetic) amounted to 12.1 µg/mL (≈ 36.5 µM).

Molecule `CC(=O)Nc1ccccc1C(=O)C(=O)Nc1ccc(F)c(Cl)c1` had a solubility (kinetic) of 2.4 µg/mL (≈ 7.17 µM).

The molecule `COc1ccccc1N1C(=S)NC2CS(=O)(=O)CC21` (centres undefined) returned a solubility (kinetic) above 44.8 µg/mL.

Take `COc1ccc(Nc2cc(Nc3ccccc3)ncn2)cc1`: the solubility (kinetic) was below 0.2 µg/mL.

`Nc1cc(=O)[nH]c(SCC(=O)Nc2ccc(N3CCOCC3)cc2)n1` had a solubility (kinetic) above 54.2 µg/mL.

For the molecule `O=C(NCc1ccco1)c1ccc2c(c1)N(Cc1ccccc1)CCS2`, the kinetic solubility is 12.9 µg/mL (≈ 35.4 µM).

Regarding `Nc1cc(=O)[nH]c(SCC(=O)Nc2cc(Cl)ccc2Cl)n1`, the solubility (kinetic) came out at 3.5 µg/mL (≈ 10.1 µM).

The molecule `COc1ccc(CNC(=O)CSc2nccn(-c3ccc(F)c(F)c3)c2=O)cc1` displayed a kinetic solubility of 12.4 µg/mL (≈ 29.7 µM).

Consider `COc1cccc(C2NC(=O)CCC2[N+](=O)[O-])c1` (centres undefined), for which the kinetic solubility was above 37.5 µg/mL.

In turn, `CC(=O)Nc1cccc(OCCCNC(=O)c2ccc(F)cc2)c1` came in with a kinetic solubility of 38.9 µg/mL (≈ 118 µM).

For `Cc1cc(=O)[nH]c2ccc(S(=O)(=O)N3CCOCC3)cc12`, the kinetic solubility was found to be 16 µg/mL (≈ 51.9 µM).

`CCCc1c(O)nc(SCC(=O)NCc2ccco2)[nH]c1=O` came in with a solubility (kinetic) above 48.5 µg/mL.

Take `CN(c1ccc(C(=O)NC2CCCC2)cc1)S(=O)(=O)c1ccccc1`: the kinetic solubility is 48.9 µg/mL (≈ 136 µM).

Consider `Cc1noc(C(=O)Nc2cc(Cl)ccc2O)c1Cl`, for which the solubility (kinetic) was 1.7 µg/mL (≈ 5.92 µM).

For the molecule `O=C(NC1CC1)c1cc2ccccc2o1`, the solubility (kinetic) is above 30.2 µg/mL.

`COCCNC(=O)c1cc2cc(Cl)cc(Cl)c2oc1=O`: the kinetic solubility was found to be 9.2 µg/mL (≈ 29.1 µM).

As to `CC1CCC(NC(=O)Cn2c(=O)oc3ccccc32)CC1` (centres undefined), the kinetic solubility came out at 4.9 µg/mL (≈ 17 µM).

`Nc1nc(Cl)nc2c1ncn2[C@@H]1O[C@H](CO)[C@@H](O)[C@H]1O` came in with a solubility (kinetic) above 45.3 µg/mL.

For the molecule `O=C(COC(=O)/C=C/c1ccc([N+](=O)[O-])cc1)NCC1CCCCC1`, the solubility (kinetic) is 1.5 µg/mL (≈ 4.33 µM).

The molecule `COc1cccc(NC(=O)COC(=O)CCSc2ccccc2)c1` returned a solubility (kinetic) of 39.8 µg/mL (≈ 115 µM).

For `CC(=O)N1CCN(c2cc(N3CCCC3)c(F)cc2[N+](=O)[O-])CC1`, the solubility (kinetic) is above 50.5 µg/mL.

`CCc1sc(C(=O)N2CCN(C(=O)c3ccccc3)CC2)cc1C` came in with a kinetic solubility above 51.4 µg/mL.

Take `O=c1c2sccc2[nH]c(=S)n1-c1ccccc1`: the solubility (kinetic) came out at 38.5 µg/mL (≈ 148 µM).

`COc1ccccc1NC(=O)c1ccccc1Nc1ccccc1` displayed a kinetic solubility of 0.5 µg/mL (≈ 1.57 µM). Against the preceding molecule, the solubility kinetic is about 77-fold lower.

`COc1ccccc1CNC(=S)Nc1ccc(F)cc1` yielded a kinetic solubility of 12 µg/mL (≈ 41.3 µM).

`OCC1(CO)COC(c2ccccc2)=N1` returned a kinetic solubility above 31.1 µg/mL.

In the case of `Cc1ccc(C)c(OCCC(=O)OCC(=O)Nc2cc(S(=O)(=O)N3CCCCC3)ccc2C)c1`, the kinetic solubility came to 13.9 µg/mL (≈ 28.4 µM).

`Cc1cccc2cc(C#N)c(NCc3ccccc3)nc12`: the solubility (kinetic) amounted to 11.4 µg/mL (≈ 41.7 µM).

In turn, `COc1ccc(NC(=O)Nc2ccncc2)c(OC)c1` gave a solubility (kinetic) above 41 µg/mL.

In turn, `O=C1CSC(=S)N1c1cccc(F)c1` displayed a solubility (kinetic) of 1 µg/mL (≈ 4.4 µM).

For the molecule `NC(=O)c1ccc(OCC(F)(F)F)nc1`, the solubility (kinetic) worked out at 31.1 µg/mL (≈ 141 µM).

`OC(C[n+]1ccccc1)c1ccccc1.[Br-]` (centres undefined) had a kinetic solubility above 42 µg/mL.

The molecule `CCOC1C(=O)NC(=O)N1Cc1ccccc1` (centres undefined) gave a kinetic solubility of 29.8 µg/mL (≈ 127 µM).

For `CC(C)(CC(=O)O)CC(=O)NCc1c(Cl)cccc1Oc1ccccc1`, the kinetic solubility was above 56.4 µg/mL.

`COc1cc(/C=C/C(=O)N2CCc3ccccc3C2)cc(OC)c1OC` yielded a solubility (kinetic) of 46.6 µg/mL (≈ 132 µM).

`CC(=O)c1ccc(N2CCN(C(=O)c3cccs3)C(C)C2)c(F)c1` (centres undefined): the solubility (kinetic) is above 52 µg/mL.

In turn, `CC1(/[N+]([O-])=C/c2cccc(Cl)c2)CCCCC1=O` (centres undefined) returned a solubility (kinetic) of 36.2 µg/mL (≈ 136 µM).

For `CCCNC(=O)CN1C(=O)c2ccccc2Sc2ncccc21`, the kinetic solubility was above 49.1 µg/mL.

With `COc1ccc(OC)c(CC(=O)Nc2ccc3c(c2)CCC3)c1`, the solubility (kinetic) worked out at 4.1 µg/mL (≈ 13.2 µM).

Regarding `CCCNC(=S)N1CCC(C(=O)c2ccc3c(c2)OCCO3)CC1`, the kinetic solubility came to 41.3 µg/mL (≈ 119 µM).

In the case of `CC1=CCC2C(=O)N(c3ccc(S(N)(=O)=O)cc3)C(=O)C2C1` (centres undefined), the solubility (kinetic) was above 48.1 µg/mL.

`O=C(NC1CCCc2ccccc21)c1cc(F)cc(F)c1` (centres undefined) returned a kinetic solubility of 2.6 µg/mL (≈ 9.05 µM).

With `C1=CCN(Cc2ccccc2)C1`, the solubility (kinetic) was found to be 4.1 µg/mL (≈ 25.7 µM).

Turning to `O=C(COC(=O)c1ccc(Cl)nc1)Nc1ccccc1OC(F)F`, the solubility (kinetic) was above 53.5 µg/mL.

With `Cc1cccc(NC(=O)C(C)C(=O)c2ccccc2)c1` (centres undefined), the solubility (kinetic) stood at 8.5 µg/mL (≈ 31.8 µM).

`COc1ccc2cc(S(=O)(=O)N3CCCC3)ccc2c1` returned a solubility (kinetic) of 3.5 µg/mL (≈ 12 µM).

`OC1(c2ccc(F)cc2)CCN(Cc2cccnc2)CC1`: the kinetic solubility is above 43 µg/mL.

The molecule `Cc1cccc(C)c1NC(=O)C(C)N1CCCCC1` (centres undefined) gave a kinetic solubility of 38.3 µg/mL (≈ 147 µM).

Regarding `Cc1ccc(C(=O)Nc2ncc(C)s2)s1`, the kinetic solubility worked out at 7.1 µg/mL (≈ 29.8 µM).

Molecule `O=C(CCS(=O)(=O)c1ccccc1)NC1CCCCC1` showed a kinetic solubility above 44.3 µg/mL.

For the molecule `COC(=O)CC1NCCc2cc(OC)c(OC)cc21` (centres undefined), the kinetic solubility is above 39.8 µg/mL.

Regarding `CSc1nsc(SCC(=O)Nc2ccc(F)cc2)n1`, the solubility (kinetic) worked out at 39.6 µg/mL (≈ 126 µM).

`CCCc1nnc(SCC(=O)N(CC)CC)n1CC1CCCO1` (centres undefined): the kinetic solubility was above 51.1 µg/mL.

For `COc1ccc(C(=O)CC(=O)C(=O)Nc2cc(C)ccc2C)cc1`, the solubility (kinetic) was determined as 11.2 µg/mL (≈ 34.4 µM).

For the origin of these results see PubChem BioAssay AID1996.
